Assay results taken from US20250243196A1, “CITRON KINASE INHIBITORS” (The Cleveland Clinic Foundation, priority 2021, published 2025).

What was measured:
Test in all cases: KinaseProfiler panel
Format in all cases: biochemical
Conditions in all cases: activity remaining
[1] = biological target: GCN2(h) (Homo sapiens (Human), UniProt Q9P2K8); parameters: dose or concentration left out as unconfirmed
[2] = biological target: TAK1(h) (Homo sapiens (Human), UniProt O43318); parameters: dose or concentration left out as unconfirmed
[3] = biological target: IRR(h) (Homo sapiens (Human), UniProt P14616); parameters: dose or concentration left out as unconfirmed
[4] = biological target: SAPK4(h) (Homo sapiens (Human), UniProt O15264); parameters: dose or concentration left out as unconfirmed
Sequence of SAPK4(h) (O15264 whole entry): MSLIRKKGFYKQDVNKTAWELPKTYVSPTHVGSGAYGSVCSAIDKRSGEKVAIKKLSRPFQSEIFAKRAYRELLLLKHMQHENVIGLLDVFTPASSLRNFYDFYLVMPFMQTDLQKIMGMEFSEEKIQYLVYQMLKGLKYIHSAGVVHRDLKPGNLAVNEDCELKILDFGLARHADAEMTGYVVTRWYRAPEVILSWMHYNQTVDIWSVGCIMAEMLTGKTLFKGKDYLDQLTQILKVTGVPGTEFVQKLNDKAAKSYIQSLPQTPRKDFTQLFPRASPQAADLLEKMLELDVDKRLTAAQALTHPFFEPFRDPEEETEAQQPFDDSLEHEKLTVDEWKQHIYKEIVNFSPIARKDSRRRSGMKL

[5] = biological target: DAPK1(h) (Homo sapiens (Human), UniProt P53355); parameters: dose or concentration left out as unconfirmed
[6] = biological target: MYLK2(h) (Homo sapiens (Human), UniProt Q9H1R3); parameters: dose or concentration left out as unconfirmed
[7] = biological target: STK33(h) (Homo sapiens (Human), UniProt Q9BYT3); parameters: dose or concentration left out as unconfirmed
[8] = biological target: PAK5(h) (Homo sapiens (Human), UniProt Q9P286); parameters: dose or concentration left out as unconfirmed
[9] = biological target: MAP4K3(h) (Homo sapiens (Human), UniProt Q8IVH8); parameters: dose or concentration left out as unconfirmed
[10] = biological target: STK32A(h) (Homo sapiens (Human), UniProt Q8WU08); parameters: dose or concentration left out as unconfirmed
Sequence of STK32A(h) (Q8WU08 whole entry): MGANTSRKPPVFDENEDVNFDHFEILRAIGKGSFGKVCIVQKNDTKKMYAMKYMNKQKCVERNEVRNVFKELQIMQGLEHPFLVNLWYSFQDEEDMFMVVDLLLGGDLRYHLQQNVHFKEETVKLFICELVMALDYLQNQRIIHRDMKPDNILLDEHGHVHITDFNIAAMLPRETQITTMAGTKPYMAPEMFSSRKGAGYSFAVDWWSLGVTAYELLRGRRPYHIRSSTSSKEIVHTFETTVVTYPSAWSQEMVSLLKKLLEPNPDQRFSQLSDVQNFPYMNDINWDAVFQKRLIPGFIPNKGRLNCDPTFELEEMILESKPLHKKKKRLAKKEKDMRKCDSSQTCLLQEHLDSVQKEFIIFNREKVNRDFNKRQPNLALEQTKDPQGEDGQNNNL

[11] = biological target: mTOR(h) (Homo sapiens (Human), UniProt P42345); parameters: dose or concentration left out as unconfirmed
[12] = biological target: Lck(h) activated (Homo sapiens (Human), UniProt P06239); parameters: dose or concentration left out as unconfirmed
[13] = biological target: EphB4(h) (Homo sapiens (Human), UniProt P54760); parameters: dose or concentration left out as unconfirmed
[14] = biological target: MLK4(h) (Homo sapiens (Human), UniProt Q5TCX8); parameters: dose or concentration left out as unconfirmed
[15] = biological target: CDK18/cyclinY(h) (Homo sapiens (Human), UniProt Q07002); parameters: dose or concentration left out as unconfirmed
[16] = biological target: PAK3(h) (Homo sapiens (Human), UniProt O75914); parameters: dose or concentration left out as unconfirmed
[17] = biological target: VRK2(h) (Homo sapiens (Human), UniProt Q86Y07); parameters: dose or concentration left out as unconfirmed
Sequence of VRK2(h) (Q86Y07 whole entry): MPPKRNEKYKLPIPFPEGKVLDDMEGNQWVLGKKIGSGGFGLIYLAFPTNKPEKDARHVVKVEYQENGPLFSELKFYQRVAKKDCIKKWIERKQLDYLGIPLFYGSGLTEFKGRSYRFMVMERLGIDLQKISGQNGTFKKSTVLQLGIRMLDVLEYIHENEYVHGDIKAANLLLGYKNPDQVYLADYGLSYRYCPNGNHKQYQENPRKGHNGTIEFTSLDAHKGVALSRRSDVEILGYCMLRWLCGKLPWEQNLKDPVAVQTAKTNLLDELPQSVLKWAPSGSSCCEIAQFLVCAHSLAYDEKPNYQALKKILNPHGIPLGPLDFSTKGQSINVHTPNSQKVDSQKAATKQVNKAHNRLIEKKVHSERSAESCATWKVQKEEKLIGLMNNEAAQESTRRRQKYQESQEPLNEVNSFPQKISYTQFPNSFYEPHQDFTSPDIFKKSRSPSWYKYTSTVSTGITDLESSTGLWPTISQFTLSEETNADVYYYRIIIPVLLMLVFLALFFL

[18] = biological target: DYRK1A(h) (Homo sapiens (Human), UniProt Q13627); parameters: dose or concentration left out as unconfirmed
[19] = biological target: CDK13/cyclinK(h) (Homo sapiens (Human), UniProt Q14004); parameters: dose or concentration left out as unconfirmed
[20] = biological target: ALK(h) (Homo sapiens (Human), UniProt Q9UM73)
Sequence of ALK(h) (Q9UM73 19-1620): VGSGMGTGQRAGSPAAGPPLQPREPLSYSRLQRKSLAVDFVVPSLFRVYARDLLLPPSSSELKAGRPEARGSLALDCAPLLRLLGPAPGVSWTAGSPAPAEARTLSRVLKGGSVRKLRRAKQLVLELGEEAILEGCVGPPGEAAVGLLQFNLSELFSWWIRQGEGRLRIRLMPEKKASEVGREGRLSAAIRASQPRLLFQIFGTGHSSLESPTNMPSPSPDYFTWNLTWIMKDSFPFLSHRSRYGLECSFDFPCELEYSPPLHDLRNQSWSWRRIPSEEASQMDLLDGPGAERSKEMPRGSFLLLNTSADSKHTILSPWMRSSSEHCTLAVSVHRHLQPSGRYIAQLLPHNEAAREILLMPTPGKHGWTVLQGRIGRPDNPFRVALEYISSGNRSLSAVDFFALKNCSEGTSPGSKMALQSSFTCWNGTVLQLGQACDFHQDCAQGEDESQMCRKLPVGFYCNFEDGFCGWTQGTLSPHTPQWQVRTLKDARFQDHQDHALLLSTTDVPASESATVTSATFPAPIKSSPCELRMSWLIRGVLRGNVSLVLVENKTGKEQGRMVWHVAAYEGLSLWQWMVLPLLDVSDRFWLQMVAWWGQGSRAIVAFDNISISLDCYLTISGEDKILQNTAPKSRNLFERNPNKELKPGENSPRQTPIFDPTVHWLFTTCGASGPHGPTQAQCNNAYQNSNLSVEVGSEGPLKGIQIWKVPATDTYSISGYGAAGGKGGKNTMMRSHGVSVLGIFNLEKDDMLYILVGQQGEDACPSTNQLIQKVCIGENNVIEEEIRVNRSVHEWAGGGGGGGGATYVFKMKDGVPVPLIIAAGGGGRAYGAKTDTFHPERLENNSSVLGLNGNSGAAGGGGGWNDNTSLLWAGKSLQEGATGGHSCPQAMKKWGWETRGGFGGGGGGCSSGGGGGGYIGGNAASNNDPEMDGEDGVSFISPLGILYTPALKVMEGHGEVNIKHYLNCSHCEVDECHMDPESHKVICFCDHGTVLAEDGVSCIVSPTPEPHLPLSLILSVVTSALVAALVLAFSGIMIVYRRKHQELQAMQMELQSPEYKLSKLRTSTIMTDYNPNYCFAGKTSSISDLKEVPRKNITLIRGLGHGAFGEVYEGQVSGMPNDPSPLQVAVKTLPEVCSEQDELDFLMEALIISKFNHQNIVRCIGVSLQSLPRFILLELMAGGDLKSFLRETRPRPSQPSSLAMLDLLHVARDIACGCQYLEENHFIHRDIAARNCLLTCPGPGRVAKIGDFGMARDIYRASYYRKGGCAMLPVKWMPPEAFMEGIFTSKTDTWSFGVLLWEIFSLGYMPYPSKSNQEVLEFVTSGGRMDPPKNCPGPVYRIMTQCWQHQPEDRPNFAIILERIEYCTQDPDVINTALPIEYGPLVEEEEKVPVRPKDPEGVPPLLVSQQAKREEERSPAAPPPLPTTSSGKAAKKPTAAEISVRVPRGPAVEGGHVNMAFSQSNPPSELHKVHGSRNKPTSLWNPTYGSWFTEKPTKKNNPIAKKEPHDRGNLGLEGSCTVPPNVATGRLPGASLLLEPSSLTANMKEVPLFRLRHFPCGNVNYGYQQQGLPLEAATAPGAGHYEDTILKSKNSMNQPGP

[21] = biological target: TTBK2(h) (Homo sapiens (Human), UniProt Q6IQ55); parameters: dose or concentration left out as unconfirmed
[22] = biological target: Fer(h) (Homo sapiens (Human), UniProt P16591); parameters: dose or concentration left out as unconfirmed
[23] = biological target: Cdc7/cyclinB1(h) (Homo sapiens, UniProt O00311); parameters: dose or concentration left out as unconfirmed
[24] = biological target: PRK1(h) (Homo sapiens (Human), UniProt Q16512); parameters: dose or concentration left out as unconfirmed
[25] = biological target: CK1ε(h) (Homo sapiens (Human), UniProt P49674); parameters: dose or concentration left out as unconfirmed
Sequence of CK1ε(h) (P49674 whole entry): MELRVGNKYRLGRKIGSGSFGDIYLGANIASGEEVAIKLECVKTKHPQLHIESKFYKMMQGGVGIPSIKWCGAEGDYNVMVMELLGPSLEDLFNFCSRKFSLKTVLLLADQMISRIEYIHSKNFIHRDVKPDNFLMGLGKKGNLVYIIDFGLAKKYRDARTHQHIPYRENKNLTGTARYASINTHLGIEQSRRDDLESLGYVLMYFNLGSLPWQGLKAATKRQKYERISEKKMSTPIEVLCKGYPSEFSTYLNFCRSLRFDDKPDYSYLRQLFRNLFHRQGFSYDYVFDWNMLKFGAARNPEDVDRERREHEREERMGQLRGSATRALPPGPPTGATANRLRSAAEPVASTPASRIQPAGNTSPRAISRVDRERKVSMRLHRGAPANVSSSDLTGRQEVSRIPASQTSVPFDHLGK

[26] = biological target: FGFR3(h) (Homo sapiens (Human), UniProt P22607); parameters: dose or concentration left out as unconfirmed
[27] = biological target: JAK3(h) (Homo sapiens (Human), UniProt P52333); parameters: dose or concentration left out as unconfirmed
[28] = biological target: GSK3β(h) (Homo sapiens (Human), UniProt P49841); parameters: dose or concentration left out as unconfirmed
[29] = biological target: PI3KC2a(h) (Homo sapiens (Human), UniProt O00443); parameters: dose or concentration left out as unconfirmed
[30] = biological target: SBK1(h) (Homo sapiens (Human), UniProt Q52WX2); parameters: dose or concentration left out as unconfirmed
[31] = biological target: CDK16/cyclinY(h) (Homo sapiens (Human), UniProt Q00536); parameters: dose or concentration left out as unconfirmed
[32] = biological target: ROCK-I(h) (Homo sapiens (Human), UniProt Q13464); parameters: dose or concentration left out as unconfirmed

Sequence of GCN2(h) (Q9P2K8 whole entry): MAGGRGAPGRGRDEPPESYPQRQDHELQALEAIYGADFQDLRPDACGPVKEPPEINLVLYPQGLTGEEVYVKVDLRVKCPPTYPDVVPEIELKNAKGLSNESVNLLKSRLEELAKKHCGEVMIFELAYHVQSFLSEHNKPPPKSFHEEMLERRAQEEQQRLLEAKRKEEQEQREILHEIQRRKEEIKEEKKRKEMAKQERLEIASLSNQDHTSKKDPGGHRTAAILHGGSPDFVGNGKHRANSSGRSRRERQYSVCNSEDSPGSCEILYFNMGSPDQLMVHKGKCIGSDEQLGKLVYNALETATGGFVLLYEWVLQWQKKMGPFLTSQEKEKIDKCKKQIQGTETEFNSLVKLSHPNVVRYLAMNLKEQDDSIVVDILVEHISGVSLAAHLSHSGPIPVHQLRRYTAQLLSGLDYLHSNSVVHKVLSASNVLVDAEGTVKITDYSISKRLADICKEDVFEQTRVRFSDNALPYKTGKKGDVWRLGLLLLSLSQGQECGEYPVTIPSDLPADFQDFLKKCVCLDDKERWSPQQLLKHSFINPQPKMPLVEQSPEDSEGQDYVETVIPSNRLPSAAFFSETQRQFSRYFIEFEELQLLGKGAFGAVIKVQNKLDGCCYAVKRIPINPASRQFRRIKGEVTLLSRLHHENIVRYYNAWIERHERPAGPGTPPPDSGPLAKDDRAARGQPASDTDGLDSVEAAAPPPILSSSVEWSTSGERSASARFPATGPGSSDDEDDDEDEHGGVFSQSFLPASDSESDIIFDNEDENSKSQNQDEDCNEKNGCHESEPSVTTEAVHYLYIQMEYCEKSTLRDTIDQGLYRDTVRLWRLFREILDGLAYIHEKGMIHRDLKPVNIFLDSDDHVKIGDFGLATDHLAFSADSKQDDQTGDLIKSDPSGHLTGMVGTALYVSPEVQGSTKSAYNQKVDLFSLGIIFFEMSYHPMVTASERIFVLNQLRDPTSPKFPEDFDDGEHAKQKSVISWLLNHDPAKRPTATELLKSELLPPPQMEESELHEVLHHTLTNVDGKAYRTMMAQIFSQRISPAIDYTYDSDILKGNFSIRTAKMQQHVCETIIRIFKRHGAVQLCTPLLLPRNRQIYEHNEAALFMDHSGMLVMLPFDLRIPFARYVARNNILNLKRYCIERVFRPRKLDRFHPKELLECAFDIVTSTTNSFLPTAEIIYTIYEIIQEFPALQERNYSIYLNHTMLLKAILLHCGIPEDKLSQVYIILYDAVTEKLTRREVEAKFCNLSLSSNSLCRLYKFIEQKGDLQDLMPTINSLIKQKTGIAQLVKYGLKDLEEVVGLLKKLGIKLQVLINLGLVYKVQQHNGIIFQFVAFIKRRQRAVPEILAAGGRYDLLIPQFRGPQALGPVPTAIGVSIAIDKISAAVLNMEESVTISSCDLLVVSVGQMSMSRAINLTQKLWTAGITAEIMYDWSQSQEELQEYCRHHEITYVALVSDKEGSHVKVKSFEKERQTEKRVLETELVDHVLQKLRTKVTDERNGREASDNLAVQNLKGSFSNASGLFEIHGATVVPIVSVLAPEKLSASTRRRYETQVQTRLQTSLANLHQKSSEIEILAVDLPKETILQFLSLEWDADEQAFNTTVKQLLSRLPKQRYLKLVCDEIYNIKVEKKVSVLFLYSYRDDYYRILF

## Cc1cc2c(-c3ccc(NC(=O)[C@H](N)CC(C)(C)C)cc3C)ccnc2[nH]1 [Compound F-90, (2R)-2-Amino-4,4-dimethyl-N-[3-methyl-4-(2-methyl-1H-pyrrolo[2,3-b]pyridin-4-yl)phenyl]pentanamide]
[1]
  % Activity: 101%
[2]
  % Activity: 91%
[3]
  % Activity: 110%
[4]
  % Activity: 94%
[5]
  % Activity: 82%
[6]
  % Activity: 76%
[7]
  % Activity: 98%
[8]
  % Activity: 87%
[9]
  % Activity: 109%
[10]
  % Activity: 90%
[11]
  % Activity: 95%
[12]
  % Activity: 119%
[13]
  % Activity: 107%
[14]
  % Activity: 112%
[15]
  % Activity: 94%
[16]
  % Activity: 89%
[17]
  % Activity: 100%
[18]
  % Activity: 112%
[19]
  % Activity: 99%
[20]
  % Activity: 77%
[21]
  % Activity: 94%
[22]
  % Activity: 103%
[23]
  % Activity: 75%
[24]
  % Activity: 91%
[25]
  % Activity: 96%
[26]
  % Activity: 86%
[27]
  % Activity: 106%
[28]
  % Activity: 93%
[29]
  % Activity: 102%
[30]
  % Activity: 97%
[31]
  % Activity: 98%
[32]
  % Activity: 96%
